Laboratory results from the supplement of paper PMC13380429.

Assays:
Conditions in all cases: 72 h
Caco-2 [1] = experiment: cell viability relative to DMSO; higher = less toxic
Calu-3 [2] = experiment: as above
HepG2 [3] = experiment: as above
U2OS [4] = experiment: as above
Vero E6 [5] = experiment: as above
Caco-2 [6] = experiment: relative viability EC50 (midpoint between 100% and the lowest measured viability); higher = less toxic
Calu-3 [7] = experiment: as above
HepG2 [8] = experiment: as above
U2OS [9] = experiment: as above
Vero E6 [10] = experiment: as above
Caco-2 [11] = experiment: drug sensitivity score (DSS) for viability; higher = more toxic; extreme values may be limits of the assay
Calu-3 [12] = experiment: as above
HepG2 [13] = experiment: as above
U2OS [14] = experiment: as above
Vero E6 [15] = experiment: as above

Row | SMILES | cell viability (Caco-2 [1]; 1 nM) [%] | cell viability (Caco-2 [1]; 10 nM) [%] | cell viability (Caco-2 [1]; 100 nM) [%] | cell viability (Caco-2 [1]; 1000 nM) [%] | cell viability (Caco-2 [1]; 10000 nM) [%] | cell viability (Calu-3 [2]; 1 nM) [%] | cell viability (Calu-3 [2]; 10 nM) [%] | cell viability (Calu-3 [2]; 100 nM) [%] | cell viability (Calu-3 [2]; 1000 nM) [%] | cell viability (Calu-3 [2]; 10000 nM) [%] | cell viability (HepG2 [3]; 1 nM) [%] | cell viability (HepG2 [3]; 10 nM) [%] | cell viability (HepG2 [3]; 100 nM) [%] | cell viability (HepG2 [3]; 1000 nM) [%] | cell viability (HepG2 [3]; 10000 nM) [%] | cell viability (U2OS [4]; 1 nM) [%] | cell viability (U2OS [4]; 10 nM) [%] | cell viability (U2OS [4]; 100 nM) [%] | cell viability (U2OS [4]; 1000 nM) [%] | cell viability (U2OS [4]; 10000 nM) [%] | cell viability (Vero E6 [5]; 1 nM) [%] | cell viability (Vero E6 [5]; 10 nM) [%] | cell viability (Vero E6 [5]; 100 nM) [%] | cell viability (Vero E6 [5]; 1000 nM) [%] | cell viability (Vero E6 [5]; 10000 nM) [%] | relative viability EC50 (Caco-2 [6]) [µM] | relative viability EC50 (Calu-3 [7]) [µM] | relative viability EC50 (HepG2 [8]) [µM] | relative viability EC50 (U2OS [9]) [µM] | relative viability EC50 (Vero E6 [10]) [µM] | drug sensitivity score (Caco-2 [11]) | drug sensitivity score (Calu-3 [12]) | drug sensitivity score (HepG2 [13]) | drug sensitivity score (U2OS [14]) | drug sensitivity score (Vero E6 [15])
1 | CN1CCc2c(c3ccccc3n2Cc2ccccc2)C1 [mebhydrolin] | 90.3 | 92.8 | 90.4 | 101 | 100 | 106 | 95.8 | 106 | 104 | 104 | 94.3 | 102 | 106 | 77 | 94.2 | 96.5 | 102 | 98.5 | 98.2 | 95.3 | 106 | 99.4 | 99.9 | 94.1 | 89.6 | > 10 | > 10 | > 10 | > 10 | > 10 | 0 | 0 | 3.1 | 0 | 0
2 | Cc1cccc(C)c1NC(=O)C1CCCCN1C (stereo not given) [mepivacaine] | 92.1 | 81.4 | 102 | 90.6 | 108 | 89.7 | 97.8 | 93.9 | 99.6 | 103 | 96.8 | 107 | 105 | 115 | 104 | 98 | 95.8 | 99.4 | 97.4 | 104 | 96.3 | 91.4 | 99.2 | 103 | 107 | > 10 | > 10 | > 10 | > 10 | > 10 | 0 | 0 | 0 | 0 | 0
3 | COc1ccc(O)cc1 [mequinol] | 97.8 | 98.5 | 105 | 104 | 97.9 | 104 | 100 | 105 | 94.9 | 92.8 | 103 | 90 | 85.6 | 92.9 | 79.7 | 100 | 109 | 96.8 | 98.7 | 101 | 96.8 | 94.1 | 105 | 103 | 95.3 | > 10 | > 10 | > 10 | > 10 | > 10 | 0 | 0 | 1.7 | 0 | 0
4 | O=C(O)CC(S)C(=O)O (stereo not given) [mercaptosuccinic-acid] | 94 | 106 | 91.2 | 95.7 | 99.7 | 102 | 101 | 93.5 | 94.7 | 97.7 | 93.1 | 93.7 | 94.9 | 96.3 | 92.7 | 103 | 104 | 94.3 | 102 | 96.2 | 96.1 | 99.8 | 96.8 | 97.4 | 99.3 | > 10 | > 10 | > 10 | > 10 | > 10 | 0 | 0 | 0 | 0 | 0
5 | CC[N+](C)(CC)CCOC(=O)C1c2ccccc2Oc2ccccc21 [methantheline] | 91.6 | 108 | 89.1 | 99 | 96.3 | 99.9 | 96.2 | 103 | 106 | 88.9 | 102 | 88.7 | 97.9 | 79.8 | 97.5 | 99.1 | 100 | 100 | 104 | 97.8 | 95.3 | 97 | 94.4 | 93.2 | 93.8 | > 10 | > 10 | > 10 | > 10 | > 10 | 0 | 0 | 0 | 0 | 0
6 | O=C(O)[C@H](CC(=O)N1C[C@H]2CCCC[C@H]2C1)Cc1ccccc1 [mitiglinide] | 99.9 | 96.4 | 95 | 101 | 94.9 | 86.3 | 93 | 88.2 | 92.8 | 104 | 98.2 | 84.2 | 91.5 | 94.6 | 104 | 92.2 | 104 | 95.3 | 116 | 96.4 | 98.4 | 104 | 101 | 98.5 | 103 | > 10 | > 10 | > 10 | > 10 | > 10 | 0 | 0 | 0 | 0 | 0
7 | O=c1c(-n2ccnn2)c[nH]n1-c1cc(N2CCOCC2)ncn1 [molidustat] | 100 | 107 | 100 | 97.2 | 96 | 78.6 | 97.9 | 87.8 | 104 | 88 | 104 | 95.4 | 94.8 | 93.2 | 95.3 | 98.1 | 97.7 | 94.7 | 103 | 91.4 | 108 | 99.4 | 104 | 95.8 | 90.9 | > 10 | > 10 | > 10 | > 10 | > 10 | 0 | 0 | 0 | 0 | 0
8 | CCOC(=O)C1=C(C)NC(=S)NC1c1cccc(O)c1 (stereo not given) [monastrol] | 103 | 94.6 | 94.1 | 96 | 96.8 | 89.7 | 95.1 | 95.6 | 100 | 103 | 99.3 | 107 | 96.2 | 99.4 | 101 | 103 | 99 | 103 | 98.7 | 104 | 104 | 108 | 102 | 97.6 | 97.9 | > 10 | > 10 | > 10 | > 10 | > 10 | 0 | 0 | 0 | 0 | 0
9 | CCCCN1CCCC1CNC(=O)c1cc(C#N)c2ccccc2c1OC (stereo not given) [nafadotride] | 98.8 | 97.6 | 97.4 | 104 | 102 | 102 | 106 | 87.2 | 105 | 97.1 | 104 | 103 | 105 | 97.5 | 96.7 | 98.3 | 101 | 104 | 101 | 92.2 | 102 | 96.8 | 105 | 100 | 92.5 | > 10 | > 10 | > 10 | > 10 | > 10 | 0 | 0 | 0 | 0 | 0
10 | Cc1cccc(C)c1NC(=O)CN1CCCC1=O [nefiracetam] | 98.3 | 91.2 | 105 | 101 | 91.2 | 104 | 104 | 97.2 | 108 | 98.7 | 102 | 104 | 96.9 | 102 | 100 | 96.5 | 93.3 | 102 | 97.2 | 102 | 94.5 | 106 | 92.6 | 102 | 111 | > 10 | > 10 | > 10 | > 10 | > 10 | 0 | 0 | 0 | 0 | 0
11 | COc1nc(N)nc2c1ncn2[C@@H]1O[C@H](CO)[C@@H](O)[C@@H]1O [nelarabine] | 97.3 | 98 | 101 | 98.6 | 104 | 115 | 101 | 94.8 | 92.3 | 107 | 105 | 104 | 105 | 95.9 | 109 | 103 | 97.5 | 98.5 | 95.6 | 102 | 97.4 | 97.3 | 99.5 | 97.6 | 98.5 | > 10 | > 10 | > 10 | > 10 | > 10 | 0 | 0 | 0 | 0 | 0
12 | COc1ccc([C@@H]2CC(=O)c3c(O)cc(O[C@@H]4O[C@H](CO)[C@@H](O)[C@H](O)[C@H]4O[C@@H]4O[C@@H](C)[C@H](O)[C@@H](O)[C@H]4O)cc3O2)cc1O [neohesperidin] | 94.5 | 99.5 | 99.4 | 90.1 | 99.3 | 102 | 91.1 | 95.7 | 101 | 102 | 102 | 97.8 | 103 | 99.3 | 101 | 96.7 | 98.8 | 97.2 | 96 | 108 | 98.2 | 92.8 | 93.6 | 95.9 | 104 | > 10 | > 10 | > 10 | > 10 | > 10 | 0 | 0 | 0 | 0 | 0
13 | CO[C@]12C[C@@H](COC(=O)c3cncc(Br)c3)CN(C)[C@@H]1Cc1cn(C)c3cccc2c13 [nicergoline] | 97.7 | 96 | 102 | 95 | 95.4 | 108 | 112 | 111 | 99.7 | 96.6 | 111 | 101 | 102 | 118 | 98.2 | 97.1 | 94.8 | 100 | 95.4 | 96.8 | 93.7 | 101 | 92.6 | 97.4 | 108 | > 10 | > 10 | > 10 | > 10 | > 10 | 0 | 0 | 0 | 0 | 0
